Source: patent publication US6114537A, “Process for scavenging thiols” (Apotex Inc., priority 1997, dated 2000)

Columns and labels:
[1] = Reaction with phenethyl mercaptan (thiol model for the H+/K+-ATPase); assay type: physicochemical; conditions: in methanol
From the text: The reactivity of the compounds in the process of the invention can be illustrated by means of their reaction with phenethyl mercaptan. This is generally illustrated in FIG. 1 of the accompanying drawings, with R of the thiol reagent representing a phenethyl group. In addition, based on prior art (Im et al., J. Biol. Chem., 1985, 260, 4591; Sturm et al., J. Org. Chem., 1987, 52, 4573; Lorentzon et al., Biochim., Biophys. Acta, 1985, 817, 25), phenethylmercaptan is useful as a model for the H^+ /K^+ -ATPase to examine the reactivity of compounds towards thiol group(s) of the enzyme. […] The compound of formula XI reacts with an additional mole of phenethyl mercaptan to produce a compound of formula XII which decomposes to give compounds of formula XIII and XIV.
A minimum of two moles of phenethyl mercaptan for 1 mole of substrate is required to effect the ring opening of 1,2,4-thiadiazolo[4,5-a]benzimidazoles to give the compound of formula XII. In general, the ring opening reaction is slow with two moles of phenethyl mercaptan. The reaction rate increases rapidly when a large excess of phenethyl mercaptan (for example, 25 fold) is used. […] This degradation of the trapped thiol intermediate to form the disulfide has also been observed in the chemical model for the H^+ /K^+ -ATPase (Lindberg et al., J. Med. Chem., 1986, 29, 1329). […]

Gastric Acid Secretions [2] = assay: Effects on (meal-stimulated) gastric acid secretion in rats; assay type: in vivo, Sprague-Dawley rats
Method: Effects of compounds of Formula I on Gastric Acid Secretions in Rats
Fasted, adult (140-240 g), male, Sprague-Dawley rats were fasted for 24 h from food, but not water, and then treated by oral gavage with 1 to 1.5 mL total volume of compound of Formula I (300 μmmol/Kg) on different days. Two hours later, rats were anesthetized with a combination of pentobartital and thiopental, the abdomen was opened and the pylorus was ligated, and tracheal, gastric, and peripheral venous canulas were placed. The stomachs were lavaged with 10 mL 0.9% saline every 10 min. for 30 min and the gastric effluent collected in receptacles to determine the basal acid secretion. Acid output was determined in each gastric effluent sample by back-titration to pH 7.0 using 0.02M NaOH. Then, 5 mL of an 8% peptone meal (pH 5.5) was instilled into the stomachs, mixed, and drained after 10 min each time for 2 hours. Acid output was determined in each gastric effluent containing the peptone meal by back-titration to pH 5.5 using 0.02 M NaOH.

[3] = Acid stability in 6 molar hydrochloric acid; assay type: physicochemical; conditions: room temperature
Method: Acid stability of 7-methoxy-3-[(4-methoxy-3,5-dimethyl-2-pyridyl)oxomethyl]-1,2,4-thiadiazolo[4,5-a]benzimidazole.
To examine acid stability of the captioned compound, the compound was dissolved in a minimum volume of methanol and the resulting solution was added to a 6 molar solution of hydrochloric acid.

Gastric Acid Secretions [4] = assay: Effects on gastric acid secretion in rats, dose-dependent study (histamine-stimulated); assay type: in vivo, Sprague-Dawley rats; conditions: 3, 30, 300 μmol/kg doses, oral, anesthetized rats; histamine 5 mg/kg i.v.
Method: Effects of compounds of Formula I on Gastric Acid Secretions in Rats (Dose-dependent study)
Fasted, adult (140-240 g), male, Sprague-Dawley rats were fasted for 24 h from food, but not water, and then treated by oral gavage with 1 to 1.5 mL total volume of 4 different doses (0.3, 3, 30, and 300 μmol/kg) of each compound on different days. Two hours later, rats were anesthetized with a combination of pentobartital and thiopental, the abdomen was opened and the pylorus was ligated, and tracheal, gastric, and peripheral venous canulas were placed. The stomachs were lavaged with 10 mL 0.9% saline every 10 min. for 30 min and the gastric effluent collected in receptacles. Acid output was determined in each gastric effluent sample by back-titration to pH 7.0 using 0.02M NaOH. Then, 5 mL of an […] meal (pH 5.5) was instilled into the stomachs, mixed, and drained after 10 min each time for 2 hours. Acid output was determined in each gastric effluent sample by back-titration to pH 7.0 using 0.02 M NaOH. After measuring basal acid output for at least 30 minutes, acid output was then measured during a 2 h intravenous infusion of histamine (5 mg/kg).

Solubility in water = assay type: physicochemical
[5] = system: gastric acid secretion, isolated gastric glands; assay: In vitro inhibition of gastric acid secretion in isolated mouse gastric glands (14C-aminopyrine accumulation); assay type: cell-based; conditions: 100 μM
Method: Acid secretion is measured indirectly by the accumulation of the weak base ^14 C-aminopyrine in the isolated murine gastric glands of mouse. The assay is performed in polypropylene eppendorf tubes containing 0.5 mL of resuspended mouse gastric glands. In addition, tubes contain the tested drug, acid secretagogues (e.g. histamine, di-butyryl cyclic AMP (cAMP), carbachol) and ^14 C-aminopyrine. Tubes are incubated for 60 min. at 37° C. and continuously rotated. The reaction is stopped by centrifugation of the gland suspension for five min. at 1500 g. Supernatant is aspirated leaving the pellet containing intact gastric glands. The pellet is washed extensively and digested overnight in 1 mL of Protosol (Amersham). After neutralisation with acetic acid and addition of scintillation fluid, the radioactivity is counted in a beta-counter (Beckman). The amount of radioactivity trapped in the pellet corresponds directly with the amount of acid being secreted. Each experimental point is done in triplicate. In each experiment, energy independent consumption was estimated with 0.1 mM of dinitrophenol and basal acid secretion in the absence of acid stimulants. These values were then subtracted from corresponding results in order to calculate basal or secretagogue stimulated acid secretion. […] Each experiment is repeated a number of times and all results are expressed as a % of the maximum stimulation.

In the case of `COc1nsc2nc3ccccc3n12` [MeO, 3-methoxy-1,2,4-thiadiazolo[4,5-a]benzimidazole], the “time to complete reaction with phenethyl mercaptan” value [1] was ≤ 1 min.

For `COc1ccc2c(c1)nc1snc(C(=O)c3ncc(C)c(OC)c3C)n12` [7-methoxy-3-[(4-methoxy-3,5-dimethyl-2-pyridyl)oxomethyl]-1,2,4-thiadiazolo[4,5-a]benzimidazole], the “inhibition of meal-stimulated acid secretion” value (Gastric Acid Secretions [2]; 300 μmmol/Kg, rats, oral) was “significant (p<0.05) inhibition”, the “level of acid output, peptone stimulated” value (Gastric Acid Secretions [2]; after 1 h, oral gavage, rats, 300 μmmol/Kg, vehicle 160 numol/30 min) was 20 μmmol/30 min and the “suppression of gastric acid secretion in animal model” value (Gastric Acid Secretions [2]; animal model) was “active in the suppression of gastric acid secretion”. The “recovery after stirring in acid” value ([3]; 48 hours) was “totally recovered”, the acid stability [3] was “very stable in acid” and the “inhibition of histamine-stimulated acid secretion” value (Gastric Acid Secretions [4]) was “significant (p<0.05) inhibition”. For the same molecule, the solubility in water (Solubility in water) was “limited solubility in water”.

For `CN(C)c1nsc2nc3ccccc3n12` [Me2 N, 3-(dimethylamino)-1,2,4-thiadiazolo[4,5-a]benzimidazole], the “time to complete reaction with phenethyl mercaptan” value [1] was ≤ 1 min.

In the case of `CN1CCN(c2nsc3nc4ccccc4n23)CC1.Cl.Cl` [3-(4-methyl-1-piperazinyl)-1,2,4-thiadiazolo [4,5-a]benzimidazole dihydrochloride], the “inhibition of cAMP stimulated acid secretion” value ([5]; cAMP stimulated) was “completely inhibited” and the “inhibition of histamine stimulated acid secretion” value ([5]; histamine stimulated) was “completely inhibited”.
